Experimental findings from ChEMBL document CHEMBL3399960, “Cytochalasin derivatives from a jellyfish-derived fungus Phoma sp” (Bioorg Med Chem Lett, 2015) are described below.

Structures are written as SMILES.

What all share (format): functional, cell-based
The nature of test [1]: Cytotoxicity against human HCT116 cells after 24 hrs by WST assay. Conditions: HCT-116, 24 h.
The test system of another test is A549. Put plainly: Cytotoxicity against human A549 cells after 24 hrs by WST assay. Conditions: A549, 24 h.
The subject of the next test is KB. Nature of the test: Cytotoxicity against human KB cells after 24 hrs by WST assay.

On to `CC1=C(C)[C@H]2[C@H](Cc3ccccc3)NC(=O)[C@]23OC(=O)/C=C/C(=O)CCC[C@@H](C)C/C=C/[C@H]3[C@@H]1O`, for which the 50% inhibitory concentration (IC50) in test [1] worked out at 38.1 µM; in the test with A549, 29.2 µM; in the test with KB it was 19.9 µM.

For the compound `C=C1[C@@H](C)[C@H]2[C@H](Cc3ccccc3)NC(=O)[C@]23OC(=O)CCC(=O)CCC[C@@H](C)C/C=C/[C@H]3[C@@H]1O`, the values for the half-maximal inhibitory concentration (IC50) (in test [1]; with A549; in the test with KB) were 39.3 µM, 39.3 µM and 37.3 µM, respectively.

Regarding `CC1=C[C@@H]2/C=C/C[C@H](C)CCCC/C=C/C(=O)O[C@]23C(=O)N[C@@H](Cc2ccccc2)[C@@H]3[C@@H]1C`, the IC50 in test [1] worked out at 18.2 µM; in the test on A549 it was 36.2 µM; with KB, 19.7 µM.

With `CC1=C(C)[C@H]2[C@H](Cc3ccccc3)NC(=O)[C@]23OC(=O)CCC(=O)CCC[C@@H](C)C/C=C/[C@H]3[C@@H]1O`, the half-inhibitory concentration (IC50) in test [1] is more than 40 µM; in the test on A549, 37.3 µM; in the test with KB, more than 40 µM.

`COc1cccc2c1C(=O)c1c(O)c3c(c(O)c1C2=O)C[C@@](O)(C(=O)CO)C[C@@H]3O[C@H]1C[C@H](N)[C@H](O)[C@H](C)O1` [DOXORUBICIN]: the IC50 is 2.2 µM in test [1], 1.3 µM in the test with A549 and 4.3 µM with KB.

As to `CC1=C(C)[C@H]2[C@H](Cc3ccccc3)NC(=O)[C@]23OC(=O)CC[C@H](O)CCC[C@@H](C)C/C=C/[C@H]3[C@@H]1O`, the 50% inhibitory concentration (IC50) (in test [1]; with A549; in the test with KB) was more than 40 µM each time.
